# From article PMC5083757, “Effect of veliparib (ABT-888) on cardiac repolarization in patients with advanced solid tumors: a randomized, placebo-controlled crossover study” (Cancer Chemotherapy and Pharmacology, 2016)
# Where two headings read alike, the source gives them in different places. Marks after values point to notes of the source that are not given here.
# Experiments:
# [1] = test system: patients with advanced solid tumors; assay: Safety: treatment-emergent adverse events; format: in vivo, human; conditions: for TEAE: AE leading to discontinuation / TEAE: Abdominal pain / TEAE: Any AE / TEAE: Any fatal AE / TEAE: Any serious AE / TEAE: Back pain / TEAE: Constipation / TEAE: Decreased appetite / TEAE: Dehydration / TEAE: Diarrhea / TEAE: Dizziness / TEAE: Dysgeusia / TEAE: Fatigue / TEAE: Hypomagnesemia / TEAE: Myalgia / TEAE: NCI CTCAE grade 3 or 4 / TEAE: Nausea / TEAE: Neck pain / TEAE: Vomiting: N = 47; for TEAE: At least possibly related to study drug: N = 47, as assessed by investigator; for Deaths: N = 47, includes non-treatment-emergent deaths
# Method: Safety was evaluated by AE monitoring, vital signs, physical examination, and laboratory testing throughout the study. Treatment-emergent AEs (TEAEs) were recorded from the time of first dose of study drug until 30 days from the last day of dosing or discontinuation, or until the first dose of study drug for patients enrolling in the NCT02033551 extension study. TEAEs were classified by Medical Dictionary for Regulatory Activities version 17.0 system organ class and preferred term. The severity of AEs was rated according to the National Cancer Institute Common Terminology Criteria for Adverse Events version 4.0. The safety population consisted of all patients’ data.
# [2] = Pharmacokinetic assessment of veliparib plasma concentrations after a single oral dose; format: in vivo, human; conditions: for half-life / AUC(0-inf) / Vd/F / AUC(0-t) / Cmax / Tmax: human, plasma; for Vd/F: read-out: VZ/F
# Method: (§1) Following screening, on the morning of day 1 of each period, eligible patients received a single dose of veliparib 200 mg, veliparib 400 mg, or placebo according to the treatment sequence assigned at randomization, administered orally between 8.00 and 10.00 AM, and approximately 30 min after the start of a low-fat breakfast. Each treatment period lasted 3–7 days, allowing for ≥3 days of drug washout between periods. After study completion, patients were permitted to enter an extension study (NCT02033551) to assess the safety of veliparib as monotherapy or in combination with chemotherapy.
# In each period, blood samples were collected for pharmacokinetic analysis at 0 h (pre-dose), and at 0.5, 1, 2, 3, 10, and 24 h post-dose. Plasma concentrations of veliparib were determined using a validated online solid-phase extraction followed by liquid chromatography with tandem mass spectrometric detection with a lower limit of quantitation for veliparib of 1.05 ng/mL. Veliparib pharmacokinetic parameters were estimated using non-compartmental methods.
# dogs = conditions: preclinical studies in dogs; cited from earlier work
# [3] = test system: patients with advanced solid tumors; assay: Exposure-response model (veliparib plasma concentration vs ∆∆QTcF); format: in vivo, human; conditions: linear mixed effects model
# Method: To establish the nonsignificance of a hysteresis effect, the criteria discussed in Darpo et al. were applied. Subsequently, linear mixed effects models were tested, with or without an additional lagged effect compartment, depending on the outcome of the test for hysteresis. A final model was chosen based on goodness of fit, plausibility of the parameters, and Bayesian information criterion (BIC). The relationship between ∆∆QTcF and veliparib concentration was modeled using the following equation: ΔΔQTcFi,j=ηi(2)+(Slope0+ηi(1))×Concentrationi,j+εi,j for subject i and time point j. η ^(2) represents the inter-subject variability on intercept (fixed effect on intercept is set to zero). Slope0 represents fixed effect on slope. η ^(1) represents the inter-subject variability of the Slope. ε i,j is the residual variability in subject i at time j.
# [4] = test system: patients with advanced solid tumors; assay: ECG assessment of QTcF interval, single-dose placebo-controlled crossover study; format: in vivo, human
# Excerpt: This was a multicenter phase 1, single-dose, double-blind, placebo-controlled, randomized, 3-period, 6-sequence crossover study (NCT02009631). The primary objective was to evaluate the effect of veliparib on corrected QT interval using Fridericia’s formula (QTcF) in patients with solid tumors. Secondary objectives were to assess the pharmacokinetics, safety, and tolerability of single-dose veliparib.
# as §1
# Serial, resting 12-lead ECG measurements were performed at screening, on day 1 of each period at 0 h (pre-dose), and at 0.5, 1, 2, 3, 10, and 24 h post-dose, and at the final study visit on day 3 of period 3. ECGs were performed in triplicate except for a single ECG at screening. All ECG tracings were evaluated using the automated signal analysis algorithm of eECG/ABBIOS to measure predefined ECG intervals (RR, PR, QT, and QRS duration). All ECGs were manually verified and adjudicated by an expert over-reader who was blinded to treatment, time, and patient identification. T- and U-wave morphologies were independently reviewed by a qualified cardiologist who was similarly blinded to treatment, time, and patient identification. QTcF was determined as follows: QTCF=QT/RR3
# A linear mixed effects model was used for the analysis of baseline-adjusted QTcF intervals (∆QTcF) for the first 24 h after dosing with either placebo, veliparib 200 mg, or veliparib 400 mg. The primary endpoint was the baseline-adjusted difference in mean QTcF between the veliparib 400 mg dose and placebo (∆∆QTcF) at six post-dose time points. Absence of QTcF effect was established if the 95 % upper confidence bound for the mean ∆∆QTcF between veliparib 400 mg and placebo was below the 10 ms threshold of clinical significance for all post-dose time points, in accordance with ICH E14 guidelines. For the QT/QTc, PR, and QRS interval variables, appropriate cutoff points defining the categories of the largest change from baseline were determined. For QTc, the cutoff points for these categories were as specified in the ICH E14 guidelines. The dataset for ECG evaluations included all available patients’ data.
# [5] = test system: patients with BRCA1/2-mutated or wild-type tumors; set-up: method as in earlier work; conditions: cited from earlier work
# [6] = 200 mg single oral dose, N = 46, mean ± SD
# [7] = 400 mg single oral dose, N = 46, mean ± SD
# [8] = 200 mg single oral dose, N = 47, mean ± SD
# [9] = any of the three regimens (200 mg, 400 mg, placebo)
# [10] = veliparib 200 mg single oral dose vs placebo
# [11] = veliparib 400 mg single oral dose vs placebo
structure (smiles),measurement,setting,value
C[C@]1(c2nc3c(C(N)=O)cccc3[nH]2)CCCN1 [Veliparib],TEAE: AE leading to discontinuation,[1]; 200 mg,0 n (%)
same,TEAE: Abdominal pain,[1]; 200 mg,2 (4.3) n (%)
same,TEAE: Any AE,[1]; 200 mg,17 (36.2) n (%)
same,TEAE: Any fatal AE,[1]; 200 mg,0 n (%)
same,TEAE: Any serious AE,[1]; 200 mg,0 n (%)
same,TEAE: Back pain,[1]; 200 mg,0 n (%)
same,TEAE: Constipation,[1]; 200 mg,0 n (%)
same,TEAE: Decreased appetite,[1]; 200 mg,0 n (%)
same,TEAE: Dehydration,[1]; 200 mg,2 (4.3) n (%)
same,TEAE: Diarrhea,[1]; 200 mg,1 (2.1) n (%)
same,TEAE: Dizziness,[1]; 200 mg,0 n (%)
same,TEAE: Dysgeusia,[1]; 200 mg,0 n (%)
same,TEAE: Fatigue,[1]; 200 mg,2 (4.3) n (%)
same,TEAE: Hypomagnesemia,[1]; 200 mg,0 n (%)
same,TEAE: Myalgia,[1]; 200 mg,4 (8.5) n (%)
same,TEAE: NCI CTCAE grade 3 or 4,[1]; 200 mg,1 (2.1) n (%)
same,TEAE: Nausea,[1]; 200 mg,6 (12.8) n (%)
same,TEAE: Neck pain,[1]; 200 mg,0 n (%)
same,TEAE: Vomiting,[1]; 200 mg,2 (4.3) n (%)
same,TEAE: At least possibly related to study drug,[1]; 200 mg,7 (14.9) n (%)
same,Deaths,[1]; 200 mg,0 n (%)
same,TEAE: AE leading to discontinuation,[1]; 400 mg,1 (2.1) n (%)
same,TEAE: Abdominal pain,[1]; 400 mg,2 (4.3) n (%)
same,TEAE: Any AE,[1]; 400 mg,23 (48.9) n (%)
same,TEAE: Any fatal AE,[1]; 400 mg,0 n (%)
same,TEAE: Any serious AE,[1]; 400 mg,0 n (%)
same,TEAE: Back pain,[1]; 400 mg,2 (4.3) n (%)
same,TEAE: Constipation,[1]; 400 mg,1 (2.1) n (%)
same,TEAE: Decreased appetite,[1]; 400 mg,1 (2.1) n (%)
same,TEAE: Dehydration,[1]; 400 mg,0 n (%)
same,TEAE: Diarrhea,[1]; 400 mg,3 (6.4) n (%)
same,TEAE: Dizziness,[1]; 400 mg,3 (6.4) n (%)
same,TEAE: Dysgeusia,[1]; 400 mg,2 (4.3) n (%)
same,TEAE: Fatigue,[1]; 400 mg,3 (6.4) n (%)
same,TEAE: Hypomagnesemia,[1]; 400 mg,0 n (%)
same,TEAE: Myalgia,[1]; 400 mg,1 (2.1) n (%)
same,TEAE: NCI CTCAE grade 3 or 4,[1]; 400 mg,1 (2.1) n (%)
same,TEAE: Nausea,[1]; 400 mg,4 (8.5) n (%)
same,TEAE: Neck pain,[1]; 400 mg,2 (4.3) n (%)
same,TEAE: Vomiting,[1]; 400 mg,4 (8.5) n (%)
same,TEAE: At least possibly related to study drug,[1]; 400 mg,11 (23.4) n (%)
same,Deaths,[1]; 400 mg,0 n (%)
same,TEAE myalgia,[1]; veliparib 200 mg,8.5%
same,TEAE nausea,[1]; veliparib 200 mg,12.8%
same,patients experiencing treatment-emergent adverse events,[1]; veliparib 200 mg,36.2%
same,TEAE diarrhea,[1]; veliparib 400 mg,6.4%
same,TEAE dizziness,[1]; veliparib 400 mg,6.4%
same,TEAE fatigue,[1]; veliparib 400 mg,6.4%
same,TEAE nausea,[1]; veliparib 400 mg,8.5%
same,TEAE vomiting,[1]; veliparib 400 mg,8.5%
same,patients experiencing treatment-emergent adverse events,[1]; veliparib 400 mg,48.9%
same,AUC∞/dose,[2]; [6],59.9 ± 19.9^b (ng h/mL)/mg
same,CL/F,[2]; [6],18.2 ± 5.09^b L/h
same,Cmax/dose,[2]; [6],6.62 ± 1.89^b (ng/mL)/mg
same,AUC∞/dose,[2]; [7],63.8 ± 20.9 (ng h/mL)/mg
same,CL/F,[2]; [7],17.3 ± 5.27 L/h
same,Cmax/dose,[2]; [7],6.51 ± 2.12 (ng/mL)/mg
same,half-life,"[2]; oral, similar for the 200 mg and 400 mg dose groups, read-out: terminal phase elimination half-life (t1/2) (converted)",~5.5 h
same,half-life,"[2]; 200 mg single oral dose, N = 46, harmonic mean ± pseudo SD, read-out: t1/2 (converted)",5.3 ± 1.1 h
same,AUC(0-inf),[2]; [6],12000 ± 3980 ng·h/mL
same,Vd/F,[2]; [6],141 ± 42.8 L
same,AUC(0-t),[2]; [8],11100 ± 3120 ng·h/mL
same,Cmax,[2]; [8],1320 ± 378 ng/mL
same,Tmax,[2]; [8],2.4 ± 0.7 h
same,half-life,"[2]; 400 mg single oral dose, N = 46, harmonic mean ± pseudo SD, read-out: t1/2 (converted)",5.4 ± 1.3 h
same,AUC(0-inf),[2]; [7],25500 ± 8370 ng·h/mL
same,AUC(0-t),[2]; [7],23800 ± 7100 ng·h/mL
same,Cmax,[2]; [7],2610 ± 847 ng/mL
same,Tmax,[2]; [7],2.5 ± 0.6 h
same,Vd/F,[2]; [7],138 ± 48.4 L
same,mean time to Cmax (Tmax),[2]; similar for the 200 mg and 400 mg dose groups,approximately 2.5 h
same,systemic exposure vs dose,[2]; single oral doses 200 mg and 400 mg,increased in a dose-proportional manner
same,effect on corrected QT (QTc) interval,dogs,mild but concentration-dependent increase
same,predicted mean ∆∆QTcF at geometric mean of Cmax,[3]; 200 mg dosing,2.45 ms
same,predicted upper 95th percentile ∆∆QTcF at geometric mean of Cmax,[3]; 200 mg dosing,3.28 ms
same,predicted mean ∆∆QTcF at geometric mean of Cmax,[3]; 400 mg dosing,4.62 ms
same,predicted upper 95th percentile ∆∆QTcF at geometric mean of Cmax,[3]; 400 mg dosing,6.19 ms
same,patients with QTcF value greater than 480 ms,[4]; [9],No patient
same,patients with change from baseline in QTcF interval greater than 30 ms,[4]; [9],No patient
same,maximum 95 % upper confidence bound for mean ∆∆QTcF,[4]; [10],6.1 ms
same,maximum mean ∆∆QTcF,[4]; [10],3.6 ms
same,maximum 95 % upper confidence bound for mean ∆∆QTcF,[4]; [11],8.9 ms
same,maximum mean ∆∆QTcF,[4]; [11],6.4 ms
same,dose-limiting toxicities,"[5]; at 400 mg twice daily, in patients with BRCA1/2-mutated and wild-type tumors, respectively",grade 3 nausea/vomiting and grade 2 seizure
same,maximum tolerated dose of single-agent veliparib,"[5]; phase 1 study, patients with BRCA1/2-mutated or wild-type tumors",400 mg twice daily
